Assay type in all cases: in vivo
Common to all, as to details: 1280 g/ha, 3 weeks

Assay [1] concerns Abutilon theophrasti (ABUTH). Nature of the assay: Herbicidal activity, post-emergence. As to the method: (§1) Seeds of monocotyledonous and dicotyledonous weeds and crop plants were placed in sandy loam in wood-fibre pots, covered with soil and cultivated in a greenhouse under good growth conditions. 2 to 3 weeks after sowing, the test plants are treated at the one-leaf stage. The compounds according to the invention, formulated as emulsion concentrates (EC), were then sprayed onto the green plant parts as an emulsion at a water application rate equating to 600 to 800 Uha with addition of 0.2% wetting agent. After the test plants have been left to stand in the greenhouse under optimal growth conditions for 3 weeks, the efficacy of the preparations was assessed visually in comparison to untreated controls (herbicidal efficacy in percent (%): 100% activity=the plants have died, 0% activity=like control plants). For example, compounds No. Ia-17, Ia-28 and Ia-37 at an application rate of 1280 g/ha each show at least 100% efficacy against Amaranthus retroflexus (AMARE) and Viola tricolor (VOTR).

In assay [2] the test system is Matricaria inodora (MATIN). Nature of the assay: Herbicidal activity, post-emergence. As for the experimental part: as §1
The next assay deals with Stellaria meida (STEME). Kind of assay: Herbicidal activity, post-emergence. As to the method: as §1
In assay [3] the test system is Amaranthus retroflexus (AMARE). Nature of the assay: Herbicidal activity, pre-emergence. An excerpt: (§2) Seeds of monocotyledonous and dicotyledonous weed plants and crop plants were placed in wood-fibre pots in sandy loam and covered with soil. The compounds according to the invention, formulated as emulsion concentrates (EC), were then applied to the surface of the covering soil as an emulsion at a water application rate equating to 600 to 800 Uha with addition of 0.2% wetting agent.
(§3) After the treatment, the pots were placed in a greenhouse and kept under good growth conditions for the test plants. The damage to the test plants was scored visually after a test period of 3 weeks by comparison with untreated controls (herbicidal activity in percent (%): 100% activity=the plants have died, 0% activity=like control plants). Here, for example, compounds No. Ia-17, Ia-37, Ia-28 and Ia-56 at an application rate of 1280 g/ha each show 100% efficacy against Amaranthus retroflexus (AMARE) and with the exception of Ia-56, even against Viola tricolor (VIOTR). Furthermore, compounds no. Ia-17, Ia-37 and Ia-28 at the same application rate show an 80% or better efficacy against Matricaria inodorae (MATIN) and Ia-17 and Ia-37 even against Stellaria media (STEME).

The subject of a further assay is Viola tricolor (VIOTR). Kind of assay: Herbicidal activity, pre-emergence.
Excerpt: as §2, §3

As for `CC(=O)NCc1cccc(-c2cnn(-c3c(Cl)cc(C(F)(C(F)(F)F)C(F)(F)F)cc3[S+](C)[O-])c2)c1` (centres unmarked) [Ia-17], the herbicidal efficacy is at least 80% in assay [1]; at least 80% in assay [2]; at least 80% in the assay on Stellaria meida (STEME); 100% in assay [3]; 100% with Viola tricolor (VIOTR).

These data come from patent US10357036B2, “Compounds for controlling arthropods” (priority 2015, dated 2019).
